Where “and” joins values, the source holds several entries; their conditions need not be identical. Identical values can stand only once.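 In this assay, cells in 96-well plates receive the compound at five concentrations for 48 hours. Endpoints are linearly interpolated between the surrounding concentrations. GI50 = concentration required for 50% inhibition of growth. TGI: total growth inhibition.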
What was measured:
Assay in all cases: DTP human tumour cell line panel, 48 h
[1] = system: NCI-H226 lung
[2] = system: CCRF-CEM leukemia
[3] = system: HS 578T breast
[4] = system: NCI-H522 lung
[5] = system: K-562 leukemia
[6] = system: RXF 393 renal
[7] = system: U251 CNS
[8] = system: HL-60(TB) leukemia
[9] = system: OVCAR-8 ovarian
[10] = system: SR leukemia

Row | Structure (SMILES) | TGI [1] | TGI [2] | TGI [3] [µM] | TGI [4] | TGI [5] | TGI [6] | TGI [7] | TGI [8] | TGI [9] | TGI [10] [µM] | GI50 [1] | GI50 [4] | GI50 [6] [µM] | GI50 [8] [µM] | GI50 [9] | GI50 [2] [µM] | GI50 [3] | GI50 [7]
1 | O=c1[nH]c(=S)[nH]c2c1C(c1ccc([N+](=O)[O-])cc1)c1c([nH]c(=S)[nH]c1=O)O2 | > 100 µM | > 100 µM | > 100 | > 100 µM | > 100 µM | > 100 µM | > 100 µM | > 100 µM | > 100 µM | – | – | – | – | – | – | – | – | –
2 | c1ccc2c3[nH]c(c2c1)=Nc1ccc(cc1)-c1nc2cc(ccc2o1)N=c1[nH]c(c2ccccc12)=Nc1ccc2nc(oc2c1)-c1ccc(cc1)N=3 | – | > 100 µM | > 100 | > 100 µM | > 100 µM | > 100 µM | > 100 µM | > 100 µM | – | > 100 | – | – | – | – | – | – | – | –
3 | N[C@@H](CCC(=O)NCP(=O)(O)O)C(=O)O | – | – | > 100 | > 100 µM | > 100 µM | – | > 100 µM | > 100 µM | > 100 µM | > 100 | – | – | – | – | – | – | – | –
4 | O=C1C=C[C@@H](COC2OC(CO)C(O)C(O)C2O)O1 (some centres not stated) | 48.9 µM and 96.9 µM | 13.9 µM and 40.8 µM | – | 5.61 µM and 18.4 µM | 23.6 µM and > 100 µM | 8.82 µM | 31 µM and 30.9 µM | 15.4 µM and 5.22 µM | > 100 µM and 66.5 µM | – | 17.6 µM | 2.22 µM | 2.72 | 2.75 | 4.61 µM | – | – | –
5 | CC(=O)N(C(=O)CC(=O)N1N=C(c2ccccc2)C(N=Nc2ccccc2[N+](=O)[O-])C1=O)c1ccc(Cl)cc1 (configuration not stated) | > 10 µM | > 10 µM | > 10 | > 10 µM | > 10 µM | > 10 µM | > 10 µM | > 10 µM | > 10 µM | – | – | – | – | – | – | – | – | –
6 | COc1ccc(N=NC(=Nc2ccccc2)c2ccc(N(CCC#N)CCC#N)cc2)cc1 | > 100 µM | – | > 100 | 69.1 µM | > 100 µM | > 100 µM | > 100 µM | – | > 100 µM | > 100 | – | – | – | – | – | – | – | –
7 | Cc1ccc(-c2cc(-c3ccco3)c(C#N)c(=S)n2C2OC(CO)C(O)C(O)C2O)cc1 (configuration not stated) | 53.9 µM and > 100 µM | 99.1 µM | > 100 | > 100 µM | > 100 µM | 45.4 µM and 45.3 µM | 35.6 µM and > 100 µM | – | 22.6 µM and > 100 µM | – | 13.4 µM and 32.4 µM | 29.5 µM and 65.4 µM | – | – | 4.73 µM and 30.8 µM | 23.2 | 14.8 µM and 33.2 µM | 16.6 µM and 36.5 µM
8 | CC1=Nc2ccccc2OC(C)=C1N=Nc1ccc2nc(C)[nH]c2c1 | > 100 µM | > 100 µM | – | > 100 µM | > 100 µM | > 100 µM | > 100 µM | > 100 µM | > 100 µM | > 100 | – | – | – | – | – | – | – | –
9 | CCCCOC(=O)Nc1ccc(S(=O)(=O)Nc2ccccc2Cl)cc1 | – | 57.3 µM | 53.8 | 49.3 µM | 43.1 µM | 55.9 µM | 36 µM | 59.5 µM | 40 µM | 26.8 | – | – | – | – | – | – | – | –
10 | C[C@]12CCC3C4=C(CCC3C1CCC2=O)C(=O)[C@H]1O[C@H]1C4=O (some centres not stated) | 4.99 µM | 4.07 µM | > 30.5 | 3.36 µM | 6.87 µM | 3.18 µM | 8.38 µM | 7.93 µM | 5.59 µM | – | – | – | – | – | – | – | – | –
11 | Nc1ncnc2c1[nH]c(=O)n2-c1ccccc1 | – | – | > 100 | – | > 100 µM | – | – | > 100 µM | > 100 µM | > 100 | – | – | – | – | – | – | – | –
12 | COc1cccc(Nc2nc(-c3cccs3)nc3cc(OC)c(OC)cc23)c1 | > 100 µM | – | 75.3 | 43.1 µM | > 100 µM | – | 61.8 µM | > 100 µM | 78.5 µM | 76.9 | – | – | – | – | – | – | – | –
13 | N#CC(Cc1ccccc1)N(CCC1=CCCCC1)C(c1ccccc1)c1ccccc1 (configuration not stated) | – | > 100 µM | > 100 | 65.9 µM | > 100 µM | > 100 µM | > 100 µM | – | > 100 µM | – | – | – | – | – | – | – | – | –
14 | Nc1c(-c2ccc(Cl)c(Cl)c2)c2ccc([N+](=O)[O-])cc2c(=O)n1-c1nc2ccccc2s1 | 50.3 µM | 0.525 µM | – | 3.02 µM | > 100 µM | 16.8 µM | > 34.1 µM | – | 17.9 µM | > 100 | – | – | – | – | – | – | – | –
15 | COc1ccc2[nH]cc(/C=C(/C)c3ccncc3)c2c1 | 38.6 µM and > 100 µM | > 100 µM | – | 21.9 µM and 7.16 µM | > 100 µM | 10.3 µM | 11 µM and 67.9 µM | 3.93 µM | > 100 µM | – | 7.63 µM | 3.99 µM | 2.74 | – | 7.76 µM | – | – | 3.24 µM
16 | O=C(Cc1ccc(O)c(O)c1)NCc1c[nH]c2ccccc12 | – | 47.8 µM | > 100 | > 100 µM | > 100 µM | > 100 µM | – | 85.7 µM | > 100 µM | – | – | – | – | – | – | – | – | –
17 | Cc1cc(Nc2ccc(S(=O)(=O)O)c3cc(S(=O)(=O)O)cc(S(=O)(=O)O)c23)c2ccccc2n1 | > 100 µM | – | > 100 | > 100 µM | – | > 100 µM | > 100 µM | > 100 µM | > 100 µM | – | – | – | – | – | – | – | – | –
18 | N#C/C(=C1/Sc2c(nc[nH]c2=O)N1c1ccccc1)c1nc2ccccc2[nH]1 | – | > 100 µM | – | > 100 µM | > 100 µM | – | > 100 µM | > 100 µM | > 100 µM | > 100 | – | – | – | – | – | – | – | –
19 | O=C(NCc1ccccc1)c1n[nH][nH]c1=O | > 100 µM | > 100 µM | > 100 | > 100 µM | > 100 µM | > 100 µM | > 100 µM | > 100 µM | > 100 µM | – | – | – | – | – | – | – | – | –
20 | C=C1CCN2CC[C@@H](OC(=O)/C(C)=C\C)[C@@H]12 | > 100 µM | > 100 µM | > 100 | > 100 µM | > 100 µM | > 100 µM | > 100 µM | – | > 100 µM | > 100 | – | – | – | – | – | – | – | –
21 | COc1cc(S(=O)(=O)Nc2nc(-c3ccc(N4C(=O)C(CC(=O)O)SC4c4cccs4)cc3)cs2)ccc1Cl (configuration not stated) | > 100 µM | – | > 100 | 37.1 µM | > 100 µM | 32.5 µM | > 100 µM | 74 µM | > 100 µM | 79.1 | – | – | – | – | – | – | – | –
22 | CC1CN(C)c2ccccc2N=C1NN (configuration not stated) | > 100 µM | > 100 µM | > 100 | > 100 µM | > 100 µM | 78.6 µM | > 100 µM | > 100 µM | > 100 µM | – | – | – | – | – | – | – | – | –
23 | Cc1oc2c(cc(O)c3cc(O)ccc32)c2cccc1-2 | – | > 100 µM | > 100 | > 100 µM | > 100 µM | > 100 µM | > 100 µM | > 100 µM | > 100 µM | > 100 | – | – | – | – | – | – | – | –

Source: PubChem BioAssay (NCI)
